doi:10.1101/637801v3 (biorxiv, 2019)

Legend:
[1] = target: rPtxS1 (recombinant pertussis toxin S1 subunit, wild type) (Bordetella pertussis, UniProt P04977); experiment: fluorometric NAD+ consumption assay; format: biochemical
[2] = target: pertussis AB5 holotoxin (PtxS1-S5) (Bordetella pertussis, UniProt P04977); experiment: cell-based
pertussis AB5 holotoxin (PtxS1-S5), sequence (P04977 whole entry, looked up): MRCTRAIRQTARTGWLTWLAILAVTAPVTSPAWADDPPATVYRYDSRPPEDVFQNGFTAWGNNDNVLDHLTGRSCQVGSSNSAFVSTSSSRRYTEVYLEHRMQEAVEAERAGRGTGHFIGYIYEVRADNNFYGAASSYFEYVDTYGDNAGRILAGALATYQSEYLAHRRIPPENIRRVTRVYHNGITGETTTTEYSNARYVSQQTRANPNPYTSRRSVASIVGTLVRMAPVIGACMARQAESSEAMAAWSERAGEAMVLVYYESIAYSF

rPtxS1 (recombinant pertussis toxin S1 subunit, wild type), sequence (P04977 35-221 limits assumed): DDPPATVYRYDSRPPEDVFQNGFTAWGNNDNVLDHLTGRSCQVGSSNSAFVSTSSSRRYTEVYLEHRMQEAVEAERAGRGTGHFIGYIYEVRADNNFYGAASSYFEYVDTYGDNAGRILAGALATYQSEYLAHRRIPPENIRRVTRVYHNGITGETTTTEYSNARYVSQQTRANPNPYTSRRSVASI

Compound: Sc1nc2c[nH]c(S)nc-2n1 [NSC29193, purine-2,8-dithiol]
- IC50 [1]: 6.8 µM

Compound: O=C(/C=C/c1cccnc1)/C=C/c1cccnc1 [NSC149286]
- IC50 [1]: 20 µM

Compound: O=[N+]([O-])c1ccc(Sc2cccc[n+]2[O-])c2nonc12 [NSC228155, 7-nitro-4-(1-oxidopyridin-1-ium-2-yl)sulfanyl-2,1,3-benzoxadiazole]
- IC50 [1]: 3 µM
- IC50 [2]: 2.35 µM
